Values joined by “and” are separate entries in the source; they are usually repeats but may differ in a detail not shown here. Equal entries are not always repeated. “Also recorded” adds a separate entry of the source. Where two headings read alike, the source gives them in different places. Blank lines part the entries; values can stand above or below the molecule they belong to.
Assays:
[1] = system: neurons with Aβ or Tau aggregates; assay: neuronal Aβ and Tau aggregation models, fluorescent microscopy; format: cell-based; details: primary cultured neurons
From the text: (§1) A series of derivatives were synthesized by including an amino group and a methyl group on benzothiazole to increase the brain permeability and fluorescent signals. The derivatives were subsequently subjected to α-Syn PFFs binding assay and counter-screening with Tau and Aβ PFFs. […] These compounds were screened on the neuronal α-Syn, Tau and Aβ aggregation model for the binding selectivity. Primary cultured neurons were infected with AAV-α-Syn, AAV-Tau FL for 7 days, then treated with α-Syn, Tau or Aβ PFFs. In a few days, the positive compounds were added in the primary neurons with indicated aggregates and analyzed under fluorescent microscopy.
(§2) Primary cultured neurons were infected with AAV-α-Syn, AAV-Tau FL or AAV-APP fragment virus for 7 days, and then treated with α-Syn, Tau or Aβ PFFs by following the described protocols (Volpicelli-Daley et al., 2014). In a few days, the positive compounds were added in the primary neurons with indicated aggregation.

[2] = molecular target: T1, LBs and LNs in DLB and MSA patient brains (Homo sapiens, UniProt P37840); assay: ex vivo screening on DLB and MSA patient brain sections; format: binding
T1 construct: from tissue; host or cells: brain sections of DLB and MSA patients
From the text: (§3) Ex vivo screening was extended into human DLB, MSA and AD patient samples. […] Since there are detectable α-Syn aggregates in AD patient brains, these compounds colocalized with p-S129 positive α-Syn inclusions.
(§4) The ex vivo screening was extended into human DLB, MSA and AD patient samples. Neurodegenerative disease of DLB (dementia with Lewy Bodies) and MSA belongs to synucleinopathies with well-defined Lewy bodies.

[3] = molecular target: α-Syn PFFs (Homo sapiens, UniProt P37840); assay: fluorescence spectroscopy titration with α-Syn PFFs; format: binding; details: for binding to α-Syn PFFs by fluorescent emission intensity: 0.08 μM fibrils, 5 μM small molecule, result in words
Method: (§5) A fluorescent titration assay was conducted. The fluorescent emission intensities were determined with 0.08 μM of various fibrils in the presence of 5 μM of the small molecules.
(§6) To further investigate the selected compounds binding activities with α-Syn PFFs, fluorescence spectroscopy titrations were conducted to quantitatively measure compounds emission intensity when interacting with different concentrations of α-Syn PFFs. The UV spectrum of each compound was determined and selected for the optimal wavelength to conduct the fluorescence spectroscopic studies.

[4] = molecular target: T2, Aβ PFFs (Homo sapiens, UniProt P05067); assay: fluorescence spectroscopy titration with Aβ PFFs; format: binding; details: fluorescence spectroscopy titration; read-out: binding constant Kd for Aβ PFFs
T2 construct: counter-screening with Tau and Aβ PFFs
T2 sequence (P05067 672-713 limits assumed): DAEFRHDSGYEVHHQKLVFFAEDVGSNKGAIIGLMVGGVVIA
Method: as §5, §6

[5] = system: senile plaques or NFT in AD; assay: ex vivo screening on AD patient brain sections; format: binding, human
From the text: as §3, §4

[6] = molecular target: T3, Lewy bodies in α-Syn A53T virus injected WT mice brain slices (Homo sapiens, UniProt P37840, A53T); assay: staining of mouse brain slices with Lewy bodies; format: binding
T3 construct: from tissue; host or cells: brain (substantia nigra) of wild-type mice injected with α-Syn A53T virus
Method: (§7) To further explore whether the positive compounds selectively bind to the Lewy bodies, α-Syn A53T patient-derived mutant virus injected WT mice brain slices were employed. These mice display extensive Lewy bodies in the SN.
(§8) To further explore whether the positive compounds selectively bind to the Lewy bodies, a α-Syn A53T patient-derived mutant virus was injected into WT mice brain slices. These mice display extensive Lewy bodies in the Substantial nigra (SN). Moreover, P301S mice expressed neurofibrillary tangles (NFT). The Lewy bodies were labeled with p-α-Syn S129 antibody and the positive aggregates were also labeled with the fluorescent signals from the small molecules. […] However, it was worth noting that almost none of the tested compounds were reactive with NFT.

[7] = molecular target: T4, senile plaques in 5×FAD and 3×Tg mice brain sections (Homo sapiens, UniProt P05067); assay: staining of mouse brain sections with senile plaques; format: binding
T4 construct: Aβ-enriched senile plaques; from tissue; host or cells: brain sections of 5×FAD and 3×Tg mice
T4 sequence (P05067 672-713 limits assumed): as above

[8] = system: NFT in Tau P301S and 3×Tg mice brain sections; assay: staining of mouse brain sections with NFT; format: binding
Method: as §7, §8

[9] = plasma-brain ratio study / in vivo PK of EU compounds; design: species or system mouse; details: for B/P: single animals; for brain permeability: i.v.
Method: To address whether the selected compounds penetrate the brain, a plasma-brain ratio study was performed with EU04-03A, EU05-02A and EU05-02B.
To test whether these compounds are brain permeable in vivo, in vivo PK profiling was conducted to determine brain exposure.

[10] = molecular target: T5, Tau PFFs (Homo sapiens, UniProt P10636); assay: fluorescence spectroscopy titration with Tau PFFs; format: binding; details: fluorescence spectroscopy titration; read-out: binding constant Kd for Tau PFFs
T5 sequence (P10636 whole entry): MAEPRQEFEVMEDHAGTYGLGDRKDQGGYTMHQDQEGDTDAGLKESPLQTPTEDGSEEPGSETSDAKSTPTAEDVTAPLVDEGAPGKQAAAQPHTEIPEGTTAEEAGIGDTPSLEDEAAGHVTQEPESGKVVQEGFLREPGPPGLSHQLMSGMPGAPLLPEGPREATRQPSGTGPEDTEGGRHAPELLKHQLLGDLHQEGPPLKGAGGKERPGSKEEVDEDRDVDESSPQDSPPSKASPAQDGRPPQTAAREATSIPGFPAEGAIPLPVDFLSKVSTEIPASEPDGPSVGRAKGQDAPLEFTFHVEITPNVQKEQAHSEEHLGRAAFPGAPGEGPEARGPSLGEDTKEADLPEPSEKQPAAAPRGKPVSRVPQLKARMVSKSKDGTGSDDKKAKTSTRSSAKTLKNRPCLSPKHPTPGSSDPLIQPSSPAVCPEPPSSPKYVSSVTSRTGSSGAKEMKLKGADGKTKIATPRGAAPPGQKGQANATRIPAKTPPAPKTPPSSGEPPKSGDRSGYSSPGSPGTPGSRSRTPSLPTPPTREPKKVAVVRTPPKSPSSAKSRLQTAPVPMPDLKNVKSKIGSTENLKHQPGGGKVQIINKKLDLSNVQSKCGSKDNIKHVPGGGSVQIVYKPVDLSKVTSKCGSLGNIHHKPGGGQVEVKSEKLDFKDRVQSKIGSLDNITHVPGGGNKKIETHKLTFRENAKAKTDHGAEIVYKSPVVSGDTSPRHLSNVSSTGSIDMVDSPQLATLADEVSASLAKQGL
Method: as §5, §6

[11] = system: α-Syn aggregated neurons; assay: neuronal α-Syn aggregation model, fluorescent microscopy; format: cell-based; details: primary cultured neurons, AAV-α-Syn plus α-Syn PFFs
From the text: as §1, §2

[12] = molecular target: T2, Aβ PFFs; assay: counter-screening with Aβ PFFs; format: binding; details: result in words
From the text: (§9) The general strategy that was employed to screen the candidate Lewy body PET agents is summarized as follows: (a) To perform in vitro binding assay with Pre-formed fibrils (PFFs) of α-Syn and counter-screening with Tau and Aβ PFFs; (b) To test the positive compounds in the neuronal models with aggregated α-Syn, Tau or […]; (c) To screen with the brain slides from α-Syn mutant A53T virus injected WT mice, and counter-screen with aged 3×Tg (containing both senile plaques and NFT), and aged Tau P301S (NFT) brain sections; (d) to screen the patient brain sections from DLB and MSA against AD; (e) To determine the binding kinetics between α-Syn PFFs and positive hits; (f) To determine the candidates in vivo brain/plasma (B/P) ratios and the brain permeability; (g) To determine the in vivo PET images in α-Syn A53T with candidates and compare its images in 5XFAD and Tau P301S mice.
(§10) To perform in vitro binding assay, commercial compounds were screened (See FIG. 7B).
(§11) A series of derivatives were synthesized by including an amino group and a methyl group on benzothiazole to increase the brain permeability and fluorescent signals. The derivatives were subsequently subjected to α-Syn PFFs binding assay and counter-screening with Tau and Aβ PFFs. […] In a few days, the positive compounds were added in the primary neurons with indicated aggregates and analyzed under fluorescent microscopy. […]

[13] = molecular target: pre-formed fibrils (PFFs) of α-Synuclein (Homo sapiens, UniProt P37840); assay: in vitro binding assay with α-Syn PFFs; details: fibrils binding assay, result in words
From the text: as §9, §10, §1
To perform in vitro binding assay, compounds were screened. […] An amino group and a methyl group in the benzothazole were added to increase its brain permeability and fluorescent signals. […] The synthesized derivatives were subsequently subjected to the α-Syn PFFs binding and counter-screen of Tau and Aβ PFFs as described above.

[14] = molecular target: T5, Tau PFFs; assay: counter-screening with Tau PFFs; format: binding; details: result in words
From the text: as §9, §10, §11

[15] = in vivo PK study of compound 13 decaying into F0502B; details: after injection of compound 13, 15 min to 90 min

Compound: Cc1cc2nc(/C=C/c3ccc(O)c(Br)c3)sc2cc1N(C)C [EU-005-02B, (E)-2-bromo-4-(2-(6-(dimethylamino)-5-methylbenzo[d]thiazol-2-yl)vinyl)phenol]
fluorescent signal in neurons with Aβ or Tau aggregates [1]: negligible effects in neurons with Aβ or Tau aggregates
staining of LBs and LNs [2]: robust signals with LBs and LNs
staining of LBs and LNs ([2]; listed as EU05-02B): robust signals with LBs and LNs in DLB and MSA patient brains
binding to α-Syn PFFs by fluorescent emission intensity [3]: stronger binding affinity toward α-Syn PFFs versus Tau and Aβ PFFs; also recorded: dose-dependent escalation of the emission intensities
binding to α-Syn PFFs by fluorescent emission intensity ([3]; listed as EU05-02B): partial binding selectivity toward α-Syn PFFs versus Aβ and Tau fibrils
binding to α-Syn PFFs by fluorescent emission intensity ([3]; listed as EU-05-02B): showed specific association with the PFFs
Kd ([3]; fluorescence spectroscopy titration, read-out: binding constant Kd for α-Syn PFFs): 170 nM
Kd [4]: 850 nM
staining of senile plaques or NFT (Aβ, AT8 positive aggregates) [5]: barely co-stained with anti-AD or AT8 positive aggregate signals
staining of senile plaques or NFT (Aβ, AT8 positive aggregates) ([5]; listed as EU05-02B): did not stain senile plaques or NFT in AD
staining of Lewy bodies (p-α-Syn S129 positive) [6]: concrete aggregates were also stained with the fluorescent signals from EU05-02B
staining of senile plaques [7]: barely recognized senile plaques or NFT
staining of NFT [8]: barely recognized senile plaques or NFT
B/P ([9]; Male ICH Mouse, 5 mg/kg IV, 0.50 h, 5 mg/kg): 2.00 and 2.47 and 1.16
B/P ([9]; Male ICH Mouse, 5 mg/kg IV, 1.00 h, 5 mg/kg): 2.72 and 6.12 and 4.48
B/P ([9]; Male ICH Mouse, 5 mg/kg IV, 2.00 h, 5 mg/kg): 5.13 and 13.88 and 25.06
B/P ([9]; Male ICH Mouse, 5 mg/kg IV, 4.00 h, 5 mg/kg): 29.74 and 5.63 and 21.06
B/P ([9]; Male ICH Mouse, 5 mg/kg IV, 8.00 h, 5 mg/kg): 57.33 and 78.00 and 36.00
Kp at 0.5 h ([9]; male, ICH, mouse, brain, iv, 5 mg/kg, Male ICH Mouse, 5 mg/kg IV, 0.50 h, read-out: B/P Mean): 1.88
Kp at 1 h ([9]; male, ICH, mouse, brain, iv, 5 mg/kg, Male ICH Mouse, 5 mg/kg IV, 1.00 h, read-out: B/P Mean): 4.44
Kp at 2 h ([9]; male, ICH, mouse, brain, iv, 5 mg/kg, Male ICH Mouse, 5 mg/kg IV, 2.00 h, read-out: B/P Mean): 14.7
Kp at 4 h ([9]; male, ICH, mouse, brain, iv, 5 mg/kg, Male ICH Mouse, 5 mg/kg IV, 4.00 h, read-out: B/P Mean): 18.8
Kp at 8 h ([9]; male, ICH, mouse, brain, iv, 5 mg/kg, Male ICH Mouse, 5 mg/kg IV, 8.00 h, read-out: B/P Mean): 57.1
in vivo half-life / decay ([9]; mice, i.v. 5 mg/kg, result in words): long in vivo half-life
brain permeability ([9]; mice, result in words): time-dependent escalation of B/P ratios; also recorded: brain permeability is much higher as compared to EU-005-02A
brain permeability ([9]; mice, result in words, listed as EU05-02B): swiftly penetrated the brain and exhibited much higher brain permeability compared to EU05-02A
Kd [10]: 3.7 µM
fluorescent signal in α-Syn aggregated neurons [11]: positive for selective binding
fluorescent signal in α-Syn aggregated neurons ([11]; listed as EU05-02B): positive signals in α-Syn aggregated neurons

binding toward Tau PFFs [14]: not Tau fibrils
Compound: COc1ccc(/C=C/c2nc3cc(C)c(N(C)CCOCCF)cc3s2)cc1Br [compound 8, (E)-2-(3-bromo-4-methoxystyryl)-N-(2-(2-fluoroethoxy)ethyl)-N,5-dimethylbenzo[d]thiazol-6-amine]
binding toward Aβ PFFs [12]: somehow interacted with both α-Syn and Aβ
binding activity toward α-Syn PFFs [13]: somehow interacted with both α-Syn and Aβ

Compound: Cc1cc2nc(/C=C/c3ccc(OC(=O)N(C)C)c(Br)c3)sc2cc1N(C)CCOCCF [compound 13, (E)-2-bromo-4-(2-(6-((2-(2-fluoroethoxy)ethyl)(methyl)amino)-5-methylbenzo[d]thiazol-2-yl)vinyl)phenyl dimethylcarbamate]
plasma concentration course [15]: decreased in the plasma
binding toward Aβ PFFs [12]: did not specifically interact with α-Syn, Aβ or Tau aggregates
binding activity toward α-Syn PFFs [13]: did not specifically interact with α-Syn, Aβ or Tau aggregates
binding toward Tau PFFs [14]: did not specifically interact with α-Syn, Aβ or Tau aggregates

Source: patent US11844846B2, “Styrylbenzothiazole derivatives and uses in imaging methods” (Emory University, priority 2018, dated 2023)
